Laboratory results as given in patent US10702592B2, “Peptides and combination of peptides for use in immunotherapy against NHL and other cancers” (Immatics Biotechnologies GmbH, priority 2016, dated 2020).

Tests used:
HLA-A*02:01 = HLA-A*02:01 (Homo sapiens, UniProt P04439, D140Y/D185E/D98H/E176V/E277Q/G131W/G231S/I119V/I121R/I166T/I218V/L300P/L318F/N151K/N90K/P208A/P217A/Q86G/Q94H/R138H/R169H/T345S); test: MHC binding assay (UV-ligand exchange, beta2m ELISA); details: binding to HLA-A*02:01, UV-ligand exchange
How it was run: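 UV-exchange pMHC monomers, 100-fold diluted → streptavidin capture 1 h 37 °C → HRP anti-β2m 2 ug/ml 1 h 37 °C → TMB, A450. Yield from HLA-A*02:01/MLA-001 monomer standard curve, 15-500 ng/ml. Only stably bound peptides keep β2m-containing complexes intact.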

CD8+ T cells = test: In vitro T-cell priming immunogenicity assay (aAPC with pMHC and anti-CD28, multimer staining); format: cell-based, human; details: for Wells positive [%]: HLA-A*02 restricted peptides, percentage of positive wells and donors (among evaluable); for in vitro immunogenicity, wells: CD8+ T cells of healthy HLA-A*02 donors, three stimulation cycles, multimer readout
Excerpt: In order to obtain information regarding the immunogenicity of the TUMAPs of the present invention, the inventors performed investigations using an in vitro T-cell priming assay based on repeated stimulations of CD8+ T cells with artificial antigen presenting cells (aAPCs) loaded with peptide/MHC complexes and anti-CD28 antibody.
In order to perform in vitro stimulations by artificial antigen presenting cells loaded with peptide-MHC complex (pMHC) and anti-CD28 antibody, the inventors first isolated CD8+ T cells from fresh HLA-A*02 leukapheresis products via positive selection using CD8 microbeads (Miltenyi Biotec, Bergisch-Gladbach, Germany) of healthy donors obtained from the University clinics Mannheim, Germany, after informed consent.
PBMCs and isolated CD8+ lymphocytes were incubated in T-cell medium (TCM) until use consisting of RPMI-Glutamax (Invitrogen, Karlsruhe, Germany) supplemented with 10% heat inactivated human AB serum (PAN-Biotech, Aidenbach, Germany), 100 U/ml Penicillin/100 μg/ml Streptomycin (Cambrex, Cologne, Germany), 1 mM sodium pyruvate (CC Pro, Oberdorla, Germany), 20 μg/ml Gentamycin (Cambrex). 2.5 ng/ml IL-7 (PromoCell, Heidelberg, Germany) and 10 U/ml IL-2 (Novartis Pharma, Nurnberg, Germany) were also added to the TCM at this step.
Generation of pMHC/anti-CD28 coated beads, T-cell stimulations and readout was performed in a highly defined in vitro system using four different pMHC molecules per stimulation condition and 8 different pMHC molecules per readout condition.
The purified co-stimulatory mouse IgG2a anti human CD28 Ab 9.3 (Jung et al., 1987) was chemically biotinylated using Sulfo-N-hydroxysuccinimidobiotin as recommended by the manufacturer (Perbio, Bonn, Germany). Beads used were 5.6 μm diameter streptavidin coated polystyrene particles (Bangs Laboratories, Illinois, USA).
800.000 beads/200 μl were coated in 96-well plates in the presence of 4×12.5 ng different biotin-pMHC, washed and 600 ng biotin anti-CD28 were added subsequently in a volume of 200 μl. Stimulations were initiated in 96-well plates by co-incubating 1×10^6 CD8+ T cells with 2×10^5 washed coated beads in 200 μl TCM supplemented with 5 ng/ml IL-12 (PromoCell) for 3 days at 37° C. Half of the medium was then exchanged by fresh TCM supplemented with 80 U/ml IL-2 and incubating was continued for 4 days at 37° C. This stimulation cycle was performed for a total of three times. For the pMHC multimer readout using 8 different pMHC molecules per condition, a two-dimensional combinatorial coding approach was used as previously described (Andersen et al., 2012) with minor modifications encompassing coupling to 5 different fluorochromes. Finally, multimeric analyses were performed by staining the cells with Live/dead near IR dye (Invitrogen, Karlsruhe, Germany), CD8-FITC antibody clone SK1 (BD, Heidelberg, Germany) and fluorescent pMHC multimers. For analysis, a BD LSRII SORP cytometer equipped with appropriate lasers and filters was used. Peptide specific cells were calculated as percentage of total CD8+ cells. Evaluation of multimeric analysis was done using the FlowJo software (Tree Star, Oregon, USA). In vitro priming of specific multimer+CD8+ lymphocytes was detected by comparing to negative control stimulations.

Row | Substance | Peptide exchange (MHC class I binding score, peptide exchange yield) (HLA-A*02:01) | Wells positive [%] (CD8+ T cells) | in vitro immunogenicity, wells (CD8+ T cells)
1 | 35 (SLSSERYYL; listed as Homo sapiens) [compound 35] | “+++” (≥50 = +++) | “++++” (≥70% = ++++) | –
2 | 324 (LLYDAVHIV; listed as Homo sapiens) [compound 324] | – | – | ++ (20% - 49% = ++)
3 | 43 (ALLEGVKNV; listed as Homo sapiens) [compound 43] | “+++” (≥50 = +++) | “++” (20% - 49% = ++) | –
4 | 44 (FIIEEQSFL; listed as Homo sapiens) [compound 44] | “+++” (≥50 = +++) | “+” (<20% = +) | –
5 | 30 (ILSTLDVEL; listed as Homo sapiens) [compound 30] | “+++” (≥50 = +++) | “++” (20% - 49% = ++) | –
6 | 328 (ILFPDIIARA; listed as Homo sapiens) [compound 328] | – | – | ++++ (≥70% = ++++)
7 | 51 (SLLGNSPVL; listed as Homo sapiens) [compound 51] | “++++” (≥75% = ++++) | “+++” (50% - 69% = +++) | –
8 | 24 (AVLGFSFRL; listed as Homo sapiens) [compound 24] | “+++” (≥50 = +++) | “++++” (≥70% = ++++) | –
9 | 321 (KLLAVIHEL; listed as Homo sapiens) [compound 321] | – | – | ++ (20% - 49% = ++)
10 | 5 (VLQGLTFTL; listed as Homo sapiens) [compound 5] | “+++” (≥50 = +++) | “+++” (50% - 69% = +++) | –
11 | 27 (FLNQESFDL; listed as Homo sapiens) [compound 27] | “+++” (≥50 = +++) | “+” (<20% = +) | –
12 | 3 (LTIDTQYYL; listed as Homo sapiens) [compound 3] | “+++” (≥50 = +++) | “+” (<20% = +) | –
13 | 25 (FLDTSNQHLL; listed as Homo sapiens) [compound 25] | “+++” (≥50 = +++) | “+” (<20% = +) | –
14 | 37 (VLGNALEGV; listed as Homo sapiens) [compound 37] | “+++” (≥50 = +++) | “+” (<20% = +) | –
15 | 47 (GLLPKLTAL; listed as Homo sapiens) [compound 47] | “+++” (≥50 = +++) | “++” (20% - 49% = ++) | –
16 | 42 (YLQDLVERA; listed as Homo sapiens) [compound 42] | “++++” (≥75% = ++++) | “+++” (50% - 69% = +++) | –
17 | 22 (ALKKHLTSV; listed as Homo sapiens) [compound 22] | “+++” (≥50 = +++) | “++++” (≥70% = ++++) | –
18 | 9 (FLLDLDPLL; listed as Homo sapiens) [compound 9] | “+++” (≥50 = +++) | “++” (20% - 49% = ++) | –
19 | 322 (TLTNIIHNL; listed as Homo sapiens) [compound 322] | – | – | ++ (20% - 49% = ++)
20 | 12 (GLLLLVPLL; listed as Homo sapiens) [compound 12] | “+++” (≥50 = +++) | “+++” (50% - 69% = +++) | –
21 | 2 (LLSEETPSA; listed as Homo sapiens) [compound 2] | “+++” (≥50 = +++) | “+” (<20% = +) | –
22 | 52 (VLLEDVDAAFL; listed as Homo sapiens) [compound 52] | “++++” (≥75% = ++++) | “+” (<20% = +) | –
23 | 323 (ILVDWLVQV; listed as Homo sapiens) [compound 323] | – | – | ++ (20% - 49% = ++)
24 | 326 (KLTDVGIATL; listed as Homo sapiens) [compound 326] | – | – | ++++ (≥70% = ++++)
25 | 320 (LLWGNLPEI; listed as Homo sapiens) [compound 320] | – | – | ++ (20% - 49% = ++)
26 | 327 (MLFGHPLLVSV; listed as Homo sapiens) [compound 327] | – | – | ++ (20% - 49% = ++)
27 | 319 (SLYKGLLSV; listed as Homo sapiens) [compound 319] | – | – | ++ (20% - 49% = ++)
28 | 325 (FLFVDPELV; listed as Homo sapiens) [compound 325] | – | – | +++ (50% - 69% = +++)

The next lines start with results.

Row | Peptide exchange (MHC class I binding score, peptide exchange yield) (HLA-A*02:01) | Substance | Wells positive [%] (CD8+ T cells) | in vitro immunogenicity, wells (CD8+ T cells)
29 | “+++” (≥50 = +++) | 73 (YLGEEYPEV; listed as Homo sapiens) [compound 73] | “+” (<20% = +) | –
30 | “++++” (≥75% = ++++) | 68 (QIAAFLFTV; listed as Homo sapiens) [compound 68] | “+++” (50% - 69% = +++) | –
31 | “++++” (≥75% = ++++) | 62 (ALAPYLDLL; listed as Homo sapiens) [compound 62] | “++” (20% - 49% = ++) | –
32 | “++++” (≥75% = ++++) | 67 (LLATVNVAL; listed as Homo sapiens) [compound 67] | “+” (<20% = +) | –
33 | “++++” (≥75% = ++++) | 253 (YSDDDVPSV; listed as Homo sapiens) [compound 253] | “+++” (50% - 69% = +++) | –
34 | “+++” (≥50 = +++) | 258 (RIYPFLLMV; listed as Homo sapiens) [compound 258] | “++++” (≥70% = ++++) | –
35 | “++++” (≥75% = ++++) | 260 (RLDEAFDFV; listed as Homo sapiens) [compound 260] | “+” (<20% = +) | –
36 | “+++” (≥50 = +++) | 60 (SLLIDVITV; listed as Homo sapiens) [compound 60] | “+++” (50% - 69% = +++) | –
37 | “++++” (≥75% = ++++) | 57 (LQIGDFVSV; listed as Homo sapiens) [compound 57] | “++++” (≥70% = ++++) | –
38 | “+++” (≥50 = +++) | 256 (ALQETPPQV; listed as Homo sapiens) [compound 256] | “+” (<20% = +) | –
39 | “++++” (≥75% = ++++) | 61 (SLLNKDLSL; listed as Homo sapiens) [compound 61] | “+” (<20% = +) | –
40 | “++++” (≥75% = ++++) | 66 (KLAPIPVEL; listed as Homo sapiens) [compound 66] | “++” (20% - 49% = ++) | –
41 | “++++” (≥75% = ++++) | 262 (LMGPVVHEV; listed as Homo sapiens) [compound 262] | “++” (20% - 49% = ++) | –
42 | “+++” (≥50 = +++) | 59 (RLHREVAQV; listed as Homo sapiens) [compound 59] | “+” (<20% = +) | –
